# Legend:
# [1] = target: T1, human TLR7 (Homo sapiens, UniProt Q9NYK1); assay: HEK293-Blue-hTLR-7 cells assay; type: cell-based; details: HEK293-Blue-hTLR7 cells, R848 stimulation, 20 hrs, SEAP reporter; read-out: HEK/hTLR7 IC50
# T1 construct: host or cells: HEK293 (HEK-Blue hTLR7)
# T1 sequence (Q9NYK1 27-1049): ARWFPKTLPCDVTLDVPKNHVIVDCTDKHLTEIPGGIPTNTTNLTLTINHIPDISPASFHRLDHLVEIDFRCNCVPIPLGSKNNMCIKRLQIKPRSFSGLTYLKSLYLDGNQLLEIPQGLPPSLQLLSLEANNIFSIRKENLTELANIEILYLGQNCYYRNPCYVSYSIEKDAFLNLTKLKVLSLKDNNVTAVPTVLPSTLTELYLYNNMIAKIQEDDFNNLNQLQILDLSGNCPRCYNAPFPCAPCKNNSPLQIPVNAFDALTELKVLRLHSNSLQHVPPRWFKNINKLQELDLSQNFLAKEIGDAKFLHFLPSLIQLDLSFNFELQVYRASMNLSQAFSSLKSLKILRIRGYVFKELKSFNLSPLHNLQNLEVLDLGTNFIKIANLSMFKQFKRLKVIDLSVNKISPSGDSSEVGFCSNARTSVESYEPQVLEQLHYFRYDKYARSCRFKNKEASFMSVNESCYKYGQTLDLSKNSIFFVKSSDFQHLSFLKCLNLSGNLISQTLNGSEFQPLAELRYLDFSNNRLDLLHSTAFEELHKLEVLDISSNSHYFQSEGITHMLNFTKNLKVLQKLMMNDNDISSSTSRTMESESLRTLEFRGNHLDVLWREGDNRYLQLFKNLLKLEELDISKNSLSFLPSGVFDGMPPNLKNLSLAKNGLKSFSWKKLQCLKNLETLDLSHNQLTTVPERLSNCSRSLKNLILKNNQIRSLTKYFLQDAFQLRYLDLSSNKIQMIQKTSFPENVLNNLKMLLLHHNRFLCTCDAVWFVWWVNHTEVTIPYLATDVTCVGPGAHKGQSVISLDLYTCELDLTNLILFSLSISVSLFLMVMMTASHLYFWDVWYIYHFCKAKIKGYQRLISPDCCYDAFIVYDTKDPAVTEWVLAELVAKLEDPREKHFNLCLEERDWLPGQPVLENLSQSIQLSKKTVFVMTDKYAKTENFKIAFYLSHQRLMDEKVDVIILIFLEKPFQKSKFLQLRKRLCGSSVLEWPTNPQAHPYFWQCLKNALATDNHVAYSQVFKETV
# Protocol: The following tests were carried out in order to determine the activity of the compounds of formula (I) and (Ia) in HEK293-Blue-hTLR-7/8/9 cells assay.
# HEK293-Blue-hTLR-7 cells assay:
# A stable HEK293-Blue-hTLR-7 cell line was purchased from InvivoGen (Cat. #: hkb-htlr7, San Diego, Calif., USA). These cells were originally designed for studying the stimulation of human TLR7 by monitoring the activation of NF-κB. A SEAP (secreted embryonic alkaline phosphatase) reporter gene was placed under the control of the […] minimal promoter fused to five NF-κB and AP-1-binding sites. The SEAP was induced by activating NF-κB and AP-1 via stimulating HEK-Blue hTLR7 cells with TLR7 ligands. Therefore, the reporter expression was declined by TLR7 antagonist under the stimulation of a ligand, such as R848 (Resiquimod), for incubation of 20 hrs. The cell culture supernatant SEAP reporter activity was determined using QUANTI-Blue™ kit (Cat. #: rep-qb1, Invivogen, San Diego, Calif., USA) at a wavelength of 640 nm, a detection medium that turns purple or blue in the presence of alkaline phosphatase.
# Then 20 μL of the supernatant from each well was incubated with […] Quanti-blue substrate solution at 37° C. for 2 hrs and the absorbance was read at 620-655 nm using a spectrophotometer. The signaling pathway that TLR7 activation leads to downstream NF-κB activation has been widely accepted, and therefore similar reporter assay was modified for evaluating TLR7 antagonist.
# [2] = target: T2, human TLR8 (Homo sapiens, UniProt Q9NR97); assay: HEK293-Blue-hTLR-8 cells assay
# T2 sequence (Q9NR97 27-1041): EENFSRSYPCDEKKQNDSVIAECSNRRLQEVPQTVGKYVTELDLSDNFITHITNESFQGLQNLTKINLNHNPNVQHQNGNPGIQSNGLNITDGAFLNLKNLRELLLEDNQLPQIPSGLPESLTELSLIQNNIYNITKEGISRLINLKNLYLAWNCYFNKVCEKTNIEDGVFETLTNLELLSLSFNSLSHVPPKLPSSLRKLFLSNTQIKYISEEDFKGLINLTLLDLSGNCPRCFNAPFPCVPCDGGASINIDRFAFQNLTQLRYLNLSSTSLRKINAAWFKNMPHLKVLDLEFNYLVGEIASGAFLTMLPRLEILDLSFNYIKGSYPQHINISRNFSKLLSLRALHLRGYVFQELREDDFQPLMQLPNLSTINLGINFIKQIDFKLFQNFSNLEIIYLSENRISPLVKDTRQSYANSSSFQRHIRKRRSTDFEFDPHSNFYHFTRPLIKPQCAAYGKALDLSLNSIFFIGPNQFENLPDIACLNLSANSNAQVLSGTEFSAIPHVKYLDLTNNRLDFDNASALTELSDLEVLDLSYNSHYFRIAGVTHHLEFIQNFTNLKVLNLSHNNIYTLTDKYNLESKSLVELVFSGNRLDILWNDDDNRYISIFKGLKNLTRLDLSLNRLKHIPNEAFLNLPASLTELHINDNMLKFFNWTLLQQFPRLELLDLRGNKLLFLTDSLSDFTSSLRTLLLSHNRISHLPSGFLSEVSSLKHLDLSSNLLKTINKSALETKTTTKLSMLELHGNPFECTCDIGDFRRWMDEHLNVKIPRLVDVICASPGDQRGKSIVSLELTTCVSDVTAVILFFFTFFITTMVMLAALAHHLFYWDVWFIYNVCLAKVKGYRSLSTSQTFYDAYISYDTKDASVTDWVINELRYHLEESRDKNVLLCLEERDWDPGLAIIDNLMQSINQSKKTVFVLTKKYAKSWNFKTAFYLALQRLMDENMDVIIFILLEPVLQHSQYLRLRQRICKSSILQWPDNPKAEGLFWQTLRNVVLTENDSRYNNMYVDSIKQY
# Text: HEK293-Blue-hTLR-8 Cells Assay:
# A stable HEK293-Blue-hTLR-8 cell line was purchased from InvivoGen (Cat. #: hkb-htlr8, San Diego, Calif., USA). These cells were originally designed for studying the stimulation of human TLR8 by monitoring the activation of NF-κB. A SEAP (secreted embryonic alkaline phosphatase) reporter gene was placed under the control of the IFN-β minimal promoter fused to five NF-κB and AP-1-binding sites. The SEAP was induced by activating NF-κB and AP-1 via stimulating HEK-Blue hTLR8 cells with TLR8 ligands. Therefore, the reporter expression was declined by TLR8 antagonist under the stimulation of a ligand, such as R848, for incubation of 20 hrs. The cell culture supernatant SEAP reporter activity was determined using QUANTI-Blue™ kit (Cat. #: rep-qb1, Invivogen, San Diego, Calif., USA) at a wavelength of 640 nm, a detection medium that turns purple or blue in the presence of alkaline phosphatase.
IC50 [1],IC50 [2],SMILES
21 nM,17 nM,"C[C@@H]1CN(c2ccc(C#N)c3ncccc23)C[C@@H]2CN(c3nccc(N4CC(N)C4)n3)CCN21 [Example 39, 5-[(4R,9aR)-8-[4-(3-aminoazetidin-1-yl)pyrimidin-2-yl]-4-methyl-3,4,6,7,9,9a-hexahydro-1H-pyrazino[1,2-a]pyrazin-2-yl]quinoline-8-carbonitrile]"
7 nM,7 nM,"C[C@@H]1CN(c2ccc(C#N)c3ncccc23)C[C@@H]2CN(c3ccnc(N4C[C@@H](F)[C@@H](N)C4)c3)CCN21 [Example 40, 5-[(4R,9aS)-8-[2-[(3S,4R)-3-amino-4-fluoro-pyrrolidin-1-yl]-4-pyridyl]-4-methyl-3,4,6,7,9,9a-hexahydro-1H-pyrazino[1,2-a]pyrazin-2-yl]quinoline-8-carbonitrile]"
35 nM,7 nM,"C[C@@H]1CN(c2ccc(C#N)c3ncccc23)C[C@@H]2CN(c3ccnc(N4CC(N)C4)c3)CCN21 [Example 41, 5-[(4R,9aS)-8-[2-(3-aminoazetidin-1-yl)-4-pyridyl]-4-methyl-3,4,6,7,9,9a-hexahydro-1H-pyrazino[1,2-a]pyrazin-2-yl]quinoline-8-carbonitrile]"
9 nM,13 nM,"Cc1cnc(N2CCN3[C@@H](C2)CN(c2ccc(C#N)c4ncccc24)C[C@H]3C)nc1N1CCNCC1 [Example 43, 5-[(4R,9aR)-4-methyl-8-(5-methyl-4-piperazin-1-yl-pyrimidin-2-yl)-3,4,6,7,9,9a-hexahydro-1H-pyrazino[1,2-a]pyrazin-2-yl]quinoline-8-carbonitrile]"
18 nM,28 nM,"CO[C@@H]1CN(c2nc(C)cc(N3CCN4[C@@H](C3)CN(c3ccc(C#N)c5ncccc35)C[C@H]4C)n2)C[C@H]1N [Example 45, 5-[(4R,9aR)-8-[2-[(3R,4R)-3-amino-4-methoxy-pyrrolidin-1-yl]-6-methyl-pyrimidin-4-yl]-4-methyl-3,4,6,7,9,9a-hexahydro-1H-pyrazino[1,2-a]pyrazin-2-yl]quinoline-8-carbonitrile]"
14 nM,13 nM,"Cc1cc(N2CCOC[C@H](N)C2)ncc1N1CCN2CCN(c3ccc(C#N)c4ncccc34)CC2C1 (stereo partly drawn) [Example 46, 5-[2-[6-[(6R)-6-amino-1,4-oxazepan-4-yl]-4-methyl-3-pyridyl]-3,4,6,7,9,9a-hexahydro-1H-pyrazino[1,2-a]pyrazin-8-yl]quinoline-8-carbonitrile]"
13 nM,20 nM,"C[C@@H]1CN(c2ccc(C#N)c3ncccc23)C[C@@H]2CN(c3ccnc(N4CCOC[C@@H](N)C4)c3)CCN21 [Example 53, 5-[(4R,9aS)-8-[2-[(6S)-6-amino-1,4-oxazepan-4-yl]-4-pyridyl]-4-methyl-3,4,6,7,9,9a-hexahydro-1H-pyrazino[1,2-a]pyrazin-2-yl]quinoline-8-carbonitrile]"
23 nM,26 nM,"C[C@@H]1CN(c2ccc(C#N)c3ncccc23)C[C@@H]2CN(c3ccnc(N4CCOC[C@H](N)C4)c3)CCN21 [Example 54, 5-[(4R,9aS)-8-[2-[(6R)-6-amino-1,4-oxazepan-4-yl]-4-pyridyl]-4-methyl-3,4,6,7,9,9a-hexahydro-1H-pyrazino[1,2-a]pyrazin-2-yl]quinoline-8-carbonitrile]"
15 nM,40 nM,"Cc1cc(N2CCN3[C@@H](C2)CN(c2ccc(C#N)c4ncccc24)C[C@H]3C)nc(N2CC(C)(N)C2)n1 [Example 55, 5-[(4R,9aR)-8-[2-(3-amino-3-methyl-azetidin-1-yl)-6-methyl-pyrimidin-4-yl]-4-methyl-3,4,6,7,9,9a-hexahydro-1H-pyrazino[1,2-a]pyrazin-2-yl]quinoline-8-carbonitrile]"
13 nM,8 nM,"C[C@@H]1CN(c2ccc(C#N)c3ncccc23)C[C@@H]2CN(c3ccnc(N4CC(C)(N)C4)c3)CCN21 [Example 56, 5-[(4R,9aS)-8-[2-(3-amino-3-methyl-azetidin-1-yl)-4-pyridyl]-4-methyl-3,4,6,7,9,9a-hexahydro-1H-pyrazino[1,2-a]pyrazin-2-yl]quinoline-8-carbonitrile]"
23 nM,22 nM,"C[C@@H]1CN(c2ccc(C#N)c3ncccc23)C[C@@H]2CN(Cc3cncc(N4CCNCC4)c3)CCN21 [Example 57, 5-[(4R,9aS)-4-methyl-8-[(5-piperazin-1-yl-3-pyridyl)methyl]-3,4,6,7,9,9a-hexahydro-1H-pyrazino[1,2-a]pyrazin-2-yl]quinoline-8-carbonitrile]"
20 nM,40 nM,"C[C@@H]1CN(c2cccc(CCN3CCN4[C@@H](C3)CN(c3ccc(C#N)c5ncccc35)C[C@H]4C)n2)CCN1 [Example 58, 5-[(4R,9aS)-4-methyl-8-[2-[6-[(3R)-3-methylpiperazin-1-yl]-2-pyridyl]ethyl]-3,4,6,7,9,9a-hexahydro-JH-pyrazino[1,2-a]pyrazin-2-yl]quinoline-8-carbonitrile]"
9 nM,28 nM,"C[C@@H]1CN(c2ccc(C#N)c3ncccc23)C[C@@H]2CN(CCc3ccc(N4CC5(CNCCO5)C4)nc3)CCN21 [Example 59, 5-[(4R,9aS)-4-methyl-8-[2-[6-(5-oxa-2,8-diazaspiro[3.5]nonan-2-yl)-3-pyridyl]ethyl]-3,4,6,7,9,9a-hexahydro-1H-pyrazino[1,2-a]pyrazin-2-yl]quinoline-8-carbonitrile]"
8 nM,14 nM,"Cc1nc(N2CCNCC2)ccc1CN1CCN2[C@@H](C1)CN(c1ccc(C#N)c3ncccc13)C[C@H]2C [Example 60, 5-[(4R,9aS)-4-methyl-8-[(2-methyl-6-piperazin-1-yl-3-pyridyl)methyl]-3,4,6,7,9,9a-hexahydro-1H-pyrazino[1,2-a]pyrazin-2-yl]quinoline-8-carbonitrile]"
